Test results: patent US8722727B2, “Antifungal agents” (Seynix, Inc., priority 2008, dated 2014)

Molecular target: T1, glucan synthase (GS) (Candida albicans, UniProt O13428)
T1 construct: Extraction of GS activity from membranes was performed at a protein concentration of 5 mg/mL in extraction buffer; endogenous in cells; host or cells: Candida albicans MY1055 (membrane fraction, detergent extraction, product entrapment)
Test: Glucan synthase inhibition (polymerization assay, 96-well)
Assay type: biochemical
Details: glucan synthase prepared from Candida albicans MY1055; 60 min incubation at 22° C.; read-out: Candida Albicans GS IC50 (ng/mL) (converted)
Protocol: The in vitro evaluation of glucan synthase inhibitory activity of compounds was measured in a polymerization assay in 96-well format. Each well contained 100 μL of ^3H-UDPG at 0.5 mM (6000 to 8000 dpm/nmol), 50 mM HEPES pH 7.5 (Sigma), 10% w/v glycerol (Sigma), 1.5 mg/mL bovine serum albumin (Sigma A 9647. Lot 44H0190), 25 mM KF (Fisher), 1 mM EDTA (Gibco ULTRAPURE), 25 μM GTP-γ-S, enzyme sufficient to give 3 to 6 nmoles incorporation during the 60 min incubation at 22° C., and test compound added from wells in 3-fold serial dilutions in 100% DMSO (1 μL/well). The reaction was stopped by the addition of 100 μL of 20% trichloroacetic acid. Plates were chilled for a minimum of 10 min, and precipitated glucan collected by filtration on GF/C plates (Packard UNIFILTER®-96), washed with 5 cycles of water (about 1 mL/well each cycle) using a Packard FILTERMATE HARVESTER. 40 μL/well scintillation fluid (Packard ULTIMA GOLD TM-XR) was added and the sealed plates counted in a WALLAC BETA counter in top-counting mode at an efficiency of approximately 40%.
Stock solutions were stored at 10 mg/mL in DMSO at −20° C. For each new enzyme preparation, the initial titration performed started at 1 mg/mL, which was prepared by making a 10-fold dilution in DMSO (5 μL to 50 μL). 40 μL of this stock was placed in column 12 of a round-bottomed 96-well microtiter plate. 40 μL DMSO was added to columns 1 to 11 in the same row and ten 3-fold serial dilutions performed, by transferring 20 μL from column 12 to column 11 etc., with 4 mixings before each transfer. No test compound was transferred to from column 2 to column 1. Duplicate aliquots of 1 μL of all 12 dilutions were then transferred to the side walls of a 96-well Bioblock 1.1 mL plate (Fisher brand) to create two rows. Graphs of the primary data were created in PRISM software (the average of two determinations) using PRISM's curve fitting program (sigmoidal dose response non-linear regression). The amount of compound required to inhibit glucan synthase activity by 50% in this assay (IC50-ng/mL) was calculated.
Routine analysis was performed with glucan synthase (GS) prepared from Candida albicans MY1055 by the following procedure: MY1055 was grown in 10 liters YPD medium (10 g yeast extract, 20 g tryptone, 20 g glucose per liter) with vigorous shaking at 30° C., to early stationary phase. Cells were harvested by centrifugation, the pellet was washed and frozen at −70° C. until breakage. Thawed pellets were shaken with an equal volume of breakage buffer (50 mM HEPES pH 7.4, 10% glycerol, 1 mM EDTA, 1 mM PMSF, 1 mM DTT) and 4 times their weight of 0.5 mm acid washed glass beads for 2 hours at 4° C. Extent of breakage was assessed visually at 40× magnification. After low speed centrifugation to remove cell debris, the supernatant was centrifuged at 100,000×g for 60 min. to separate membranes plus ribosomes from cytoplasmic components. Membranes were further washed two additional times with breakage buffer using the same centrifugation conditions and finally suspended in breakage buffer at 25 to 30 mg/mL protein (Biorad) for storage at −70° C. Extraction of GS activity from membranes was performed at a protein concentration of 5 mg/mL in extraction buffer (50 mM NaPO4 pH 7.5, 0.1 M KCl, 0.1M Na citrate, 20% glycerol, 5 μM GTP-γ-S, 1 mM DTT, 1 mM PMSF, 3 μg/mL pepstatin) plus 0.25% W1 by gentle mixing at 4° C. for 60 min, followed by centrifugation at 100,000×g for 60 min. After centrifugation, clear supernatant was removed from a pellet consisting of a hard layer usually with small amounts of gelatinous unextracted membranes above it.
Trapping was initiated immediately by 5-fold dilution in trapping buffer (50 mM HEPES pH 7.5, 10 mM KF, 1 mM EDTA, 2 mg/mL BSA) plus 2.5 mM UDPG and 10 μM GTP-γ-S. After incubation at 25° C. for 60 to 90 minutes, glucan was harvested by low speed centrifugation (3,000×g, 10 min). […]

T1 sequence (O13428 1-1897): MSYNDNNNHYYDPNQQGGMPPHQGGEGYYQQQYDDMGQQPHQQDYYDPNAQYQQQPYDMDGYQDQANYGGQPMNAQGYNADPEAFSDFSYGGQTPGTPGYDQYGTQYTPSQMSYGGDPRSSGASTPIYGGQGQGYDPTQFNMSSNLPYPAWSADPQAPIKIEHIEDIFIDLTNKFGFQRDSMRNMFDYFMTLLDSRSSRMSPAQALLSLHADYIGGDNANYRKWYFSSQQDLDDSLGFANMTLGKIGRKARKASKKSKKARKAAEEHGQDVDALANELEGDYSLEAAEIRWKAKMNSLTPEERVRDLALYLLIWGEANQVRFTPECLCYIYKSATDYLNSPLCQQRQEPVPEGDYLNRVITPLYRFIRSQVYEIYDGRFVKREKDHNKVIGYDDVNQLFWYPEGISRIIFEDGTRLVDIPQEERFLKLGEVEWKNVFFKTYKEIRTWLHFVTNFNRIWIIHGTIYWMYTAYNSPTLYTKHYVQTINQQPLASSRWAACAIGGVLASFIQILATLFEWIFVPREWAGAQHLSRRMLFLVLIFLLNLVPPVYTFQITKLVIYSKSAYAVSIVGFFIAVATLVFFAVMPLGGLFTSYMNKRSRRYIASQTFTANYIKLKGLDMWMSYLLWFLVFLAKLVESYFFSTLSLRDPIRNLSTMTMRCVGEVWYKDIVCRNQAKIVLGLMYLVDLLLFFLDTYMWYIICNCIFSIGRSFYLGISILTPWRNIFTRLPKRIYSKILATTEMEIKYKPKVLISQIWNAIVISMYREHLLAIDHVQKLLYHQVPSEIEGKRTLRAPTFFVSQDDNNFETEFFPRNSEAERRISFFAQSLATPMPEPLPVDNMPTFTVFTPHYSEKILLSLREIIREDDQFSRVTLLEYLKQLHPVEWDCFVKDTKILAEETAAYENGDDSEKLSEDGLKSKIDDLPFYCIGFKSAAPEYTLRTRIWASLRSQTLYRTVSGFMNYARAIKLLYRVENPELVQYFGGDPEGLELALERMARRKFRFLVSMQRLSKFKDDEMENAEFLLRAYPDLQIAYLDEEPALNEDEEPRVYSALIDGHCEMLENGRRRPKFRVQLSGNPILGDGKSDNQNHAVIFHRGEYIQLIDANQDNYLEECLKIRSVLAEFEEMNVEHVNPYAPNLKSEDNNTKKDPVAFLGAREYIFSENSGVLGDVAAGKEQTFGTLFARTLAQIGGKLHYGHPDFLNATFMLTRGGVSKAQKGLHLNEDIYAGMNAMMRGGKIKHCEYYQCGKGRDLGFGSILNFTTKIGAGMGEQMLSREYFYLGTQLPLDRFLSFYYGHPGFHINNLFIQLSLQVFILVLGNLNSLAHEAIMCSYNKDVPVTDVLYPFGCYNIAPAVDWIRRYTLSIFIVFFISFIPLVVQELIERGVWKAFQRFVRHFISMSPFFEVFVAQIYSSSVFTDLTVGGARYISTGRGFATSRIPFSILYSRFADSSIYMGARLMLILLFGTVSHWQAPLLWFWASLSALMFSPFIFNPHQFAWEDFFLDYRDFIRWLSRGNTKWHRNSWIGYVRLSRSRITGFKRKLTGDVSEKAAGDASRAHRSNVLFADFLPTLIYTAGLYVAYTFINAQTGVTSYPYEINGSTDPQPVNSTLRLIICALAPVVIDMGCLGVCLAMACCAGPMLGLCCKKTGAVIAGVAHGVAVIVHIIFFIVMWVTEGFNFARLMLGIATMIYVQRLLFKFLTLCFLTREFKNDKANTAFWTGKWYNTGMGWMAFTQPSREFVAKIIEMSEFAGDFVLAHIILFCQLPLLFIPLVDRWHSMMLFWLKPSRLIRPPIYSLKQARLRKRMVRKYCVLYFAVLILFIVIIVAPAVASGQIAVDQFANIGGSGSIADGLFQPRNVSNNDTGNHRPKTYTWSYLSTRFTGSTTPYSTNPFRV
T1 sequence (O42825 1-195 partner limits assumed): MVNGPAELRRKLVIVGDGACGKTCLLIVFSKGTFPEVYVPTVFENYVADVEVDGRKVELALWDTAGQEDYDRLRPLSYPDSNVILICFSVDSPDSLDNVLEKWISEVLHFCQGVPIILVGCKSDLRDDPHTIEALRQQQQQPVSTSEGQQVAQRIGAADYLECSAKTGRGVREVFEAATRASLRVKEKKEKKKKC

Row | SMILES | IC50
1 | CC(C)[C@@H](C)[C@@]1(C)CC[C@]2(C)[C@H]3CC[C@@H]4[C@@]5(COC[C@@]4(C)[C@@H](OC[C@H](N)C(C)(C)C)[C@H](n4nnc(N)n4)C5)C3=CC[C@@]2(C)[C@@H]1C(=O)O [Example 22, (1S,4aR,6aS,7R;8R,10aR,10bR,12aR,14R,15R)-15-[[(2R)-2-amino-3,3-dimethylbutyl]oxy]-14-(5-amino-2H-tetrazol-2-yl)-8-[(1R)-1,2-dimethylpropyl]-1,6,6a,7,8,9,10,10a,10b,11,12,12a-dodecahydro-1,6a,8,10a-tetramethyl-4H-1,4a-propano-2H-phenanthro[1,2-c]pyran-7-carboxylic acid] | 6.11 nM
2 | CCC(N)(CC)CO[C@H]1[C@H](n2nnc(N)n2)C[C@@]23COC[C@]1(C)[C@@H]2CC[C@H]1C3=CC[C@@]2(C)[C@H](C(=O)O)[C@@](C)([C@H](C)C(C)C)CC[C@]12C [Example 23, (1S,4aR,6aS,7R,8R,10aR,10bR,12aR,14R,15R)-15-(2-amino-2-ethylbutoxy)-14-(5-amino-2H-tetrazol-2-yl)-8-[(1R)-1,2-dimethylpropyl]-1,6,6a,7,8,9,10,10a,10b,11,12,12a-dodecahydro-1,6a,8,10a-tetramethyl-4H-1,4a-propano-2H-phenanthro[1,2-c]pyran-7-carboxylic acid] | 7.63 nM
3 | CC(C)[C@@H](C)[C@@]1(C)CC[C@]2(C)[C@H]3CC[C@@H]4[C@@]5(COC[C@@]4(C)[C@@H](OCCC4(N)CCCC4)[C@H](n4nnc(N)n4)C5)C3=CC[C@@]2(C)[C@@H]1C(=O)O [Example 25, (1S,4aR,6aS,7R,8R,10aR,10bR,12aR,14R,15R)-15-[2-(1-aminocyclopentyl)ethoxy]-14-(5-amino-2H-tetrazol-2-yl)-8-[(1R)-1,2-dimethylpropyl]-1,6,6a,7,8,9,10,10a,10b,11,12,12a-dodecahydro-1,6a,8,10a-tetramethyl-4H-1,4a-propano-2H-phenanthro[1,2-c]pyran-7-carboxylic acid] | 40.5 nM
4 | CNC1(CO[C@H]2[C@H](n3nnc(N)n3)C[C@@]34COC[C@]2(C)[C@@H]3CC[C@H]2C4=CC[C@@]3(C)[C@H](C(=O)O)[C@@](C)([C@H](C)C(C)C)CC[C@]23C)CCOCC1 [Example 27, (1S,4aR,6aS,7R,8R,10aR,10bR,12aR,14R,15R)-14-(5-amino-2H-tetrazol-2-yl)-8-[(1R)-1,2-dimethylpropyl]-15-[[tetrahydro-4-(methylamino)-2H-pyran-4-yl]methoxy]-1,6,6a,7,8,9,10,10a,10b,11,12,12a-dodecahydro-1,6a,8,10a-tetramethyl-4H-1,4a-propano-2H-phenanthro[1,2-c]pyran-7-carboxylic acid] | 5.86 nM
5 | CC(C)[C@@H](C)[C@@]1(C)CC[C@]2(C)[C@H]3CC[C@@H]4[C@@]5(COC[C@@]4(C)[C@@H](OCC4(N)CCSCC4)[C@H](n4nnc(N)n4)C5)C3=CC[C@@]2(C)[C@@H]1C(=O)O [Example 30, (1S,4aR,6aS,7R,8R,10aR,10bR,12aR,14R,15R)-15-[(4-aminotetrahydro-2H-thiopyran-4-yl)methoxy]-14-(5-amino-2H-tetrazol-2-yl)-8-[(1R)-1,2-dimethylpropyl]-1,6,6a,7,8,9,10,10a,10b,11,12,12a-dodecahydro-1,6a,8,10a-tetramethyl-4H-1,4a-propano-2H-phenanthro[1,2-c]pyran-7-carboxylic acid] | 2.92 nM
6 | CNC1(CO[C@H]2[C@H](n3nnc(N)n3)C[C@@]34COC[C@]2(C)[C@@H]3CC[C@H]2C4=CC[C@@]3(C)[C@H](C(=O)O)[C@@](C)([C@H](C)C(C)C)CC[C@]23C)CCCCC1 [Example 32, (1S,4aR,6aS,7R,8R,10aR,10bR,12aR,14R,15R)-14-(5-amino-2H-tetrazol-2-yl)-8-[(1R)-1,2-dimethylpropyl]-15-[[1-(methylamino)cyclohexyl]methoxy]-1,6,6a,7,8,9,10,10a,10b,11,12,12a-dodecahydro-1,6a,8,10a-tetramethyl-4H-1,4a-propano-2H-phenanthro[1,2-c]pyran-7-carboxylic acid] | 11.7 nM
7 | CC(C)[C@@H](C)[C@@]1(C)CC[C@]2(C)[C@H]3CC[C@@H]4[C@@]5(COC[C@@]4(C)[C@@H](OCCNCCCN(C)C)[C@H](n4nnc(N)n4)C5)C3=CC[C@@]2(C)[C@@H]1C(=O)O [Example 36, (1S,4aR,6aS,7R,8R,10aR,10bR,12aR,14R,15R)-14-(5-amino-2H-tetrazol-2-yl)-15-[2-[[3-(dimethylamino)propyl]amino]ethoxy]-8-[(1R)-1,2-dimethylpropyl]-1,6,6a,7,8,9,10,10a,10b,11,12,12a-dodecahydro-1,6a,8,10a-tetramethyl-4H-1,4a-propano-2H-phenanthro[1,2-c]pyran-7-carboxylic acid] | 8.77 nM
8 | CC(=O)Nc1nnnn1[C@@H]1C[C@@]23COC[C@](C)([C@@H]2CC[C@H]2C3=CC[C@@]3(C)[C@H](C(=O)O)[C@@](C)([C@H](C)C(C)C)CC[C@]23C)[C@H]1OC[C@](C)(N)C(C)C [Example 38A, (1S,4aR,6aS,7R,8R,10aR,10bR,12aR,14R,15R)-14-[5-(acetylamino)-1H-tetrazol-1-yl]-15-[[(2R)-2-amino-2,3-dimethylbutyl]oxy]-8-[(1R)-1,2-dimethylpropyl]-1,6,6a,7,8,9,10,10a,10b,11,12,12a-dodecahydro-1,6a,8,10a-tetramethyl-4H-1,4a-propano-2H-phenanthro[1,2-c]pyran-7-carboxylic acid] | 81.8 nM
9 | CN[C@@](C)(CO[C@H]1[C@H](n2nnc(NC(C)=O)n2)C[C@@]23COC[C@]1(C)[C@@H]2CC[C@H]1C3=CC[C@@]2(C)[C@H](C(=O)O)[C@@](C)([C@H](C)C(C)C)CC[C@]12C)C(C)C [Example 39B, (1S,4aR,6aS,7R,8R,10aR,10bR,12aR,14R,15R)-14-[5-(acetylamino)-2H-tetrazol-2-yl]-15-[[(2R)-2,3-dimethyl-2-(methylamino)butyl]oxy]-8-[(1R)-1,2-dimethylpropyl]-1,6,6a,7,8,9,10,10a,10b,11,12,12a-dodecahydro-1,6a,8,10a-tetramethyl-4H-1,4a-propano-2H-phenanthro[1,2-c]pyran-7-carboxylic acid] | 15.5 nM
10 | Cc1nnnn1[C@@H]1C[C@@]23COC[C@](C)([C@@H]2CC[C@H]2C3=CC[C@@]3(C)[C@H](C(=O)O)[C@@](C)([C@H](C)C(C)C)CC[C@]23C)[C@H]1OCCN [Example 41A, (1S,4aR,6aS,7R,8R,10aR,10bR,12aR,14R,15R)-15-(2-aminoethoxy)-8-[(1R)-1,2-dimethylpropyl]-14-(5-methyl-1H-tetrazol-1-yl)-1,6,6a,7,8,9,10,10a,10b,11,12,12a-dodecahydro-1,6a,8,10a-tetramethyl-4H-1,4a-propano-2H-phenanthro[1,2-c]pyran-7-carboxylic acid] | 199 nM
